Laboratory results published in article PMC6733504, “Effects of flavoring compounds used in electronic cigarette refill liquids on endothelial and vascular function” (PLoS ONE, 2019).

How the values were obtained:
[1] = target: T1, soluble guanylate cyclase (sGC) (Bos taurus, UniProt P16068+P19687); test: Activity of purified sGC stimulated with DEA/NO; format: biochemical, bovine; conditions: control
T1 construct: The activity of sGC purified from bovine lung; from tissue; host or cells: bovine lung
T1 sequence (P19687 1-691): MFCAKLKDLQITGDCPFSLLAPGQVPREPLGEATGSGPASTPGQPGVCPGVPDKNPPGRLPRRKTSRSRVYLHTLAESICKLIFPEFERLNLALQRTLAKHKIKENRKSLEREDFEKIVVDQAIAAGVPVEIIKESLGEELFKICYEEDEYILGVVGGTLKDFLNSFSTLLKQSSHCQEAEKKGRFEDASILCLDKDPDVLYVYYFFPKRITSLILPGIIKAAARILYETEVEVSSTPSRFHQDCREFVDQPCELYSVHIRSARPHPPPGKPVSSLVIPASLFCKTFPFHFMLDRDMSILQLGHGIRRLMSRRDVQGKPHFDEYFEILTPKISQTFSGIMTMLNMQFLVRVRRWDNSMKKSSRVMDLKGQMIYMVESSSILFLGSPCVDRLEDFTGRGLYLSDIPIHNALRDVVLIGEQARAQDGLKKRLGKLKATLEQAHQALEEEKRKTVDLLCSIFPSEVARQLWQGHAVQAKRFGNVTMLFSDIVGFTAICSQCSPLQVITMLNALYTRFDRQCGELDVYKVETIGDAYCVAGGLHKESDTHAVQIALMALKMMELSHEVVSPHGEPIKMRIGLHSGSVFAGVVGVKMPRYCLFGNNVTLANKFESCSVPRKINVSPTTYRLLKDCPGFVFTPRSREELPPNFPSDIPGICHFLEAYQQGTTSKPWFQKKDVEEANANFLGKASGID
T1 sequence (P16068 1-619): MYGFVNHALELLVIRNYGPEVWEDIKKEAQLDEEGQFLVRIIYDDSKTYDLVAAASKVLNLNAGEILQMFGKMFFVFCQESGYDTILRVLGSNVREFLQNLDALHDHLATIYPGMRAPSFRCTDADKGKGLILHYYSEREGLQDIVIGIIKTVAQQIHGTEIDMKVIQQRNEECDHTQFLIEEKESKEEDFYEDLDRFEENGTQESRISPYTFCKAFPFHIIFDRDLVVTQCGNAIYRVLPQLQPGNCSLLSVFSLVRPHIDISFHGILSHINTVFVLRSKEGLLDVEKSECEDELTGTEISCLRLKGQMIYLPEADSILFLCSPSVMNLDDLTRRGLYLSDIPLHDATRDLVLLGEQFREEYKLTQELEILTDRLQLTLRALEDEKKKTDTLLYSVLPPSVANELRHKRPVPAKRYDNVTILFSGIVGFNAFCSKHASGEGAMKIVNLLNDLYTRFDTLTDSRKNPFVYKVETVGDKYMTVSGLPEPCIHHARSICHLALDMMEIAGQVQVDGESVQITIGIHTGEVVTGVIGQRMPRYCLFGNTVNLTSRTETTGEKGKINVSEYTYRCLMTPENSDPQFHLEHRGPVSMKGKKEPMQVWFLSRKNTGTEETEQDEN
Protocol: The activity of sGC purified from bovine lung was determined as formation of [^32P]cGMP from [α-^32P]GTP. The purified enzyme (50 ng) was incubated at 37°C for 10 min in a final volume of 0.1 ml in the absence or presence of flavorings with the NO donor DEA/NO at concentrations indicated in the figure legends, followed by isolation of [^32P]cGMP and quantification of radioactivity (Cerenkov radiation) in a β counter.
To test for reversibility of inhibition, sGC (50 ng) was preincubated in the absence or presence of the respective compounds for 5 minutes at 37°C, followed by 50-fold dilution in the assay mixtures and incubation with DEA/NO at 37°C for 10 minutes.

rat aortic rings = test: Relaxation of U-46619 precontracted aortic rings to DEA/NO; conditions: read-out: EC50 of vascular relaxation to DEA/NO
Protocol: Animal experiments were performed in compliance with the Austrian law on experimentation with laboratory animals (last amendment 2013) based on the European Union guidelines for the Care and the Use of Laboratory Animals (European Union Directive 2010/63/EU). Unsexed Sprague-Dawley rats (obtained from Charles River, Sulzfeld, Germany) were housed at the local animal facility in approved cages. They were fed standard chow (Altromin 3023; obtained from Königshofer Futtermittel, Ebergassing, Austria) and received water ad libitum. Animals were euthanized in a box that was gradually filled with CO2 until vital signs had ceased (cessation of respiration and circulation). […]
For isometric tension measurements, vessel rings with intact endothelium were suspended in 5-ml organ baths containing oxygenated Krebs-Henseleit buffer (concentrations in mM: NaCl 118.4, NaHCO3 25, KCl 4.7, KH2PO4 1.2, CaCl2 2.5, MgCl2 1.2, D-Glucose 11; pH 7.4), as previously described in detail. After equilibration for 60 min at the optimal resting tension of 20 mN, maximal contractile activity was determined with a depolarizing solution containing 60 mM K^+. […]
Effects are expressed as percent of relaxation of U-46619-induced contraction. Concentration-response curves of different ring segments from a single animal were averaged and counted as an individual experiment.

[2] = test system: endothelium-denuded rat aortic rings; test: cAMP and cGMP levels in endothelium-denuded aortic rings; conditions: 10 µM
Text: 1 S4 Table. […]
2 endothelium-denuded rat aortic rings.
Flavoring (fmol x mg-1) (fmol x mg-1)
4 En d o th e liu m-denuded rings, treated with test compounds as described in the
5 Materials and methods section of the main text, were freeze-clamped when maximal
6 relaxation had been reached. Rings were homogenized in 5% trichloroacetic acid
7 and analyzed for cAMP and cGMP by radioimmunoassay. Forskolin and DEA/NO
8 were used to induce maximal accumulation of cAMP and cGMP, respectively. Data
9 shown are mean values±SEM of 3 (forskolin and DEA/NO) or 6 (basal,
10 cinnamaldehyde and eugenol) rings; n.d., not determined, *p<0.05 vs. basal (ANOVA
11 and Dunnett's post hoc test).

CCN(CC)[N+]([O-])=NO [DEA/NO, 2,2-Diethyl-1-nitroso-oxyhydrazine, reference compound]
Maximal sGC activity with DEA/NO ([1]; no flavoring): 28±0.9 μmol cGMP x min^-1 x mg^-1 | EC50 ([1]; no flavoring (0.1% DMSO), 95% CI, read-out: EC50 of DEA/NO for sGC stimulation): 37 nM | EC50 (rat aortic rings): 43 nM | cGMP [2]: 4917±1483 fmol x mg-1
